Our source for the TGI and GI50 values is PubChem BioAssay (NCI).

Values joined by “and” are separate entries in the source; they are usually repeats but may differ in a detail not shown here. Equal values may be shown once.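 Tested at 5 concentrations; 48 h exposure; 96-well plates; endpoints linearly interpolated, else capped at highest concentration. GI50 is the concentration that inhibits growth by half. TGI: total growth inhibition.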

Among the test systems are HCC-2998 colon; NCI-H460 lung; CAKI-1 renal; HCT-116 colon; OVCAR-5 ovarian; SK-MEL-2 melanoma; HCT-15 colon; SK-OV-3 ovarian; OVCAR-3 ovarian; SNB-19 CNS; OVCAR-8 ovarian; 786-0 renal; SW-620 colon.
Assay in all cases: inhibition of tumour cell growth, NCI panel, 48 h

For `CN1CCOC(c2ccccc2)O1` (stereo not drawn), the TGI in the experiment with HCC-2998 colon, in the experiment with NCI-H460 lung, with CAKI-1 renal, in the experiment with HCT-116 colon, with OVCAR-5 ovarian and in the experiment with SK-MEL-2 melanoma was more than 100 µM each time. Moreover, the TGI in the experiment on HCT-15 colon, with SK-OV-3 ovarian, with OVCAR-3 ovarian, with SNB-19 CNS, in the experiment with OVCAR-8 ovarian and with 786-0 renal was more than 100 µM each time. In the experiment with SW-620 colon, this compound registered a TGI of more than 100 µM.

Consider `CN1C2CCC1CC(=CCOC(c1ccc(F)cc1)c1ccc(F)cc1)C2`, for which the TGI in the experiment on HCC-2998 colon was 13.3 µM; in the experiment with NCI-H460 lung, 35.3 µM; in the experiment on CAKI-1 renal, 30.6 µM; with HCT-116 colon it was 24.6 µM; in the experiment on OVCAR-5 ovarian it was 36 µM; in the experiment on SK-MEL-2 melanoma it was 39.4 µM. The TGI in the experiment with HCT-15 colon is 29.6 µM; with SK-OV-3 ovarian it was 31.3 µM; with OVCAR-3 ovarian it was 31.3 µM; in the experiment with SNB-19 CNS it was 37.8 µM; in the experiment on OVCAR-8 ovarian it was 32 µM; in the experiment on 786-0 renal, 27.9 µM. For the same compound, in the experiment on SW-620 colon, the TGI is more than 100 µM.

As to `COc1ccc(S(=O)(=O)c2nnc(S(=O)(=O)Cc3ccccc3)s2)cc1`, the TGI with NCI-H460 lung came out at 38.1 µM; in the experiment with CAKI-1 renal, 39.3 µM; with HCT-116 colon it was 38.1 µM; in the experiment on OVCAR-5 ovarian, 54.5 µM; in the experiment with SK-MEL-2 melanoma, 45.1 µM; in the experiment with HCT-15 colon, 50.5 µM. Further, the TGI in the experiment on SK-OV-3 ovarian is 44.6 µM; in the experiment on OVCAR-3 ovarian it was more than 100 µM; in the experiment on SNB-19 CNS, 36.8 µM; in the experiment with OVCAR-8 ovarian, 49.4 µM; with 786-0 renal, 62.1 µM; in the experiment with SW-620 colon it was 44 µM.

`CN(C)CCC(=O)c1ccccc1`: the TGI in the experiment with HCC-2998 colon was more than 69.6 µM; in the experiment with NCI-H460 lung, more than 73.5 µM; in the experiment on CAKI-1 renal, 40.5 µM; in the experiment with HCT-116 colon, 55.4 µM; in the experiment on OVCAR-5 ovarian it was more than 57.6 µM; in the experiment with SK-MEL-2 melanoma, more than 84.4 µM. The TGI is 46.9 µM in the experiment on HCT-15 colon; more than 68.8 µM with SK-OV-3 ovarian; more than 73.4 µM with OVCAR-3 ovarian; more than 100 µM in the experiment with SNB-19 CNS; more than 71.9 µM with OVCAR-8 ovarian; 44.2 µM with 786-0 renal. This compound had a TGI in the experiment with SW-620 colon of 32.4 µM.

Take `Cn1ccc(C(=O)NCCN(CCNC(=O)c2ccn(C)c(=O)c2O)CCNC(=O)c2cccc(=O)n2O)c(O)c1=O`: the TGI with HCC-2998 colon, in the experiment with NCI-H460 lung, in the experiment on CAKI-1 renal, with HCT-116 colon, in the experiment on OVCAR-5 ovarian and with SK-MEL-2 melanoma was more than 100 µM throughout. Moreover, the TGI in the experiment on HCT-15 colon, in the experiment on SK-OV-3 ovarian, with OVCAR-3 ovarian, in the experiment on SNB-19 CNS, with OVCAR-8 ovarian and in the experiment on 786-0 renal was more than 100 µM throughout. Besides, the TGI with SW-620 colon is more than 100 µM.

`COC1(OC)C(N(C)C)=C(Cl)C(=O)/C1=C/C=O`: the TGI in the experiment with HCC-2998 colon, in the experiment on NCI-H460 lung, in the experiment on CAKI-1 renal, in the experiment on HCT-116 colon, with OVCAR-5 ovarian and with HCT-15 colon was more than 100 µM each time. The TGI in the experiment on SK-OV-3 ovarian, in the experiment with OVCAR-3 ovarian, in the experiment with SNB-19 CNS, in the experiment with OVCAR-8 ovarian, with 786-0 renal and in the experiment with SW-620 colon was more than 100 µM throughout.

Regarding `O=c1cc(-c2cccc3ccccc23)[nH]c2ncccc12`, the GI50 in the experiment on HCC-2998 colon was 0.0313 µM; with NCI-H460 lung, 0.0392 µM; in the experiment with SK-MEL-2 melanoma, 0.0136 µM; in the experiment on SK-OV-3 ovarian, 0.0147 µM; with SNB-19 CNS, 0.0366 µM; with OVCAR-8 ovarian it was 0.0338 µM. For the same compound, the TGI with HCC-2998 colon is 0.424 µM and 1.54 µM; in the experiment with NCI-H460 lung, more than 100 µM; in the experiment with CAKI-1 renal it was more than 100 µM; in the experiment on HCT-116 colon, 21.3 µM; with OVCAR-5 ovarian it was more than 100 µM; in the experiment with SK-MEL-2 melanoma it was more than 100 µM. Moreover, the TGI with HCT-15 colon is 10.3 µM; in the experiment with SNB-19 CNS, more than 100 µM; in the experiment with OVCAR-8 ovarian, 0.889 µM and 0.453 µM; with 786-0 renal, more than 100 µM; with SW-620 colon, more than 100 µM.

Regarding `S=c1sc2c(Cl)nc(Cl)nc2n1-c1ccccc1`, the TGI with HCC-2998 colon was more than 100 µM; with NCI-H460 lung it was more than 100 µM; in the experiment on CAKI-1 renal, more than 100 µM; in the experiment with HCT-116 colon it was 31.1 µM; in the experiment on OVCAR-5 ovarian, more than 100 µM; with SK-MEL-2 melanoma, more than 100 µM. For the same compound, the TGI is 32 µM in the experiment on HCT-15 colon; more than 100 µM in the experiment with SK-OV-3 ovarian; 60.4 µM with OVCAR-3 ovarian; more than 100 µM with SNB-19 CNS; more than 100 µM in the experiment on OVCAR-8 ovarian; more than 100 µM in the experiment on 786-0 renal. In the experiment on SW-620 colon, the TGI amounted to 68.1 µM.

`CC1CCC(C(C)C)C(OC(=O)NCn2cc(-c3ccccc3)nn2)C1` (stereo not drawn): the TGI with HCC-2998 colon, in the experiment on NCI-H460 lung, with CAKI-1 renal, in the experiment with HCT-116 colon, in the experiment on OVCAR-5 ovarian and with SK-MEL-2 melanoma was more than 100 µM throughout. Further, the TGI in the experiment with HCT-15 colon, in the experiment on SNB-19 CNS, in the experiment on OVCAR-8 ovarian, in the experiment with 786-0 renal and with SW-620 colon was more than 100 µM in each case.

As for `CC1CCC(=O)C(C(=O)CC2CC(=O)N(C)C(=O)C2)C1` (stereo not drawn), the TGI in the experiment with HCC-2998 colon, in the experiment with NCI-H460 lung, with CAKI-1 renal, in the experiment on HCT-116 colon, in the experiment on OVCAR-5 ovarian and with SK-MEL-2 melanoma was more than 100 µM in each case. Besides, the TGI in the experiment on HCT-15 colon, in the experiment with SK-OV-3 ovarian, with OVCAR-3 ovarian, with SNB-19 CNS, in the experiment with OVCAR-8 ovarian and in the experiment on 786-0 renal was more than 100 µM in each case. Moreover, the TGI in the experiment with SW-620 colon was more than 100 µM.

With `CN=C1CC2c3cc(OC)c(OC)cc3CCN2C2=C1C(=O)CC(C)(C)C2` (stereo not drawn), the TGI with HCC-2998 colon, in the experiment on NCI-H460 lung, with CAKI-1 renal, with HCT-116 colon, in the experiment on OVCAR-5 ovarian and in the experiment with SK-MEL-2 melanoma was more than 100 µM each time. Further, the TGI in the experiment on OVCAR-3 ovarian, with SNB-19 CNS, with OVCAR-8 ovarian, in the experiment on 786-0 renal and in the experiment with SW-620 colon was more than 100 µM throughout.

In the case of `Cc1ccc(-n2c(N)c(C#N)c3[nH]nc(N)c3c2=O)cc1`, the TGI in the experiment with HCC-2998 colon, in the experiment on NCI-H460 lung, in the experiment with CAKI-1 renal, in the experiment with HCT-116 colon, with SK-MEL-2 melanoma and in the experiment on HCT-15 colon was more than 100 µM each time. For the same compound, the TGI in the experiment with SK-OV-3 ovarian, in the experiment on SNB-19 CNS, in the experiment with OVCAR-8 ovarian, in the experiment on 786-0 renal and with SW-620 colon was more than 100 µM in each case.

Consider `CC1CN(C(=O)CN2CCC(CCCCN(C)C)CC2)c2ccccc2NC1=O` (stereo not drawn), for which the TGI in the experiment with HCC-2998 colon, with NCI-H460 lung, in the experiment on CAKI-1 renal, with HCT-116 colon, in the experiment on OVCAR-5 ovarian and in the experiment on HCT-15 colon was more than 100 µM each time. Further, the TGI in the experiment with SK-OV-3 ovarian, in the experiment with OVCAR-3 ovarian, with SNB-19 CNS, with 786-0 renal and with SW-620 colon was more than 100 µM in each case.

With `CCCNC(=S)NNC(=O)CSc1nc(-c2ccccc2)c(-c2ccccc2)[nH]1`, the TGI was more than 100 µM in the experiment with NCI-H460 lung; 94.6 µM with CAKI-1 renal; more than 100 µM with HCT-116 colon; more than 100 µM in the experiment on OVCAR-5 ovarian; more than 100 µM in the experiment with SK-MEL-2 melanoma; more than 100 µM with HCT-15 colon. Besides, the TGI was more than 100 µM in the experiment on SK-OV-3 ovarian; 79.7 µM with OVCAR-3 ovarian; more than 100 µM with SNB-19 CNS; more than 100 µM in the experiment with OVCAR-8 ovarian; more than 100 µM in the experiment with 786-0 renal; more than 100 µM with SW-620 colon.

In the case of `COc1ccc(-[n+]2nc(S(=O)(=O)O)c(/C=C/c3ccc(N(C)C)cc3)cc2C#N)cc1`, the TGI in the experiment with HCC-2998 colon, with CAKI-1 renal, with HCT-116 colon, with OVCAR-5 ovarian, in the experiment with SK-MEL-2 melanoma and in the experiment with HCT-15 colon was more than 100 µM throughout. Also, the TGI in the experiment with SK-OV-3 ovarian, in the experiment on OVCAR-3 ovarian, in the experiment with SNB-19 CNS, in the experiment on OVCAR-8 ovarian, in the experiment on 786-0 renal and in the experiment on SW-620 colon was more than 100 µM throughout.

For `Cn1c(=O)n(C2(C)C[Se]C2)c2ccccc21`, the TGI in the experiment on HCC-2998 colon, with NCI-H460 lung, with CAKI-1 renal, in the experiment with HCT-116 colon, with OVCAR-5 ovarian and with SK-MEL-2 melanoma was more than 100 µM in each case. Besides, the TGI in the experiment with HCT-15 colon, with SK-OV-3 ovarian, with SNB-19 CNS, in the experiment with OVCAR-8 ovarian, in the experiment on 786-0 renal and in the experiment on SW-620 colon was more than 100 µM in each case.

Consider `N#Cc1c2ccccc2cn1-c1ccc(F)cc1`, for which the TGI with HCC-2998 colon is more than 100 µM; in the experiment on NCI-H460 lung, more than 100 µM; in the experiment on CAKI-1 renal, more than 100 µM; with HCT-116 colon, 62.3 µM; in the experiment with OVCAR-5 ovarian, more than 100 µM; in the experiment on OVCAR-3 ovarian, 67.9 µM. In addition, the TGI with SNB-19 CNS, in the experiment with 786-0 renal and with SW-620 colon was more than 100 µM each time.
